Measured values reported in patent publication US8946142B2, “Beta-arrestin effectors and compositions and methods of use thereof” (Trevena, Inc., priority 2012, dated 2015).
Where a SMILES comes first, the peptide text is derived from it. [ ]: non-standard residue; d: D form. Ac6c = NC1(C(=O)O)CCCCC1; Ac5c = NC1(C(=O)O)CCCC1; Sar = CNCC(=O)O

Assays:
Assay type in all cases: cell-based
[1] = molecular target: T1, human AT1R (Homo sapiens, UniProt P30556); experiment: beta-arrestin2 recruitment assay (PathHunter), human AT1R; settings: for Emax: 1 h, read-out: Span (relative to hAngII)
T1 sequence (P30556 1-359): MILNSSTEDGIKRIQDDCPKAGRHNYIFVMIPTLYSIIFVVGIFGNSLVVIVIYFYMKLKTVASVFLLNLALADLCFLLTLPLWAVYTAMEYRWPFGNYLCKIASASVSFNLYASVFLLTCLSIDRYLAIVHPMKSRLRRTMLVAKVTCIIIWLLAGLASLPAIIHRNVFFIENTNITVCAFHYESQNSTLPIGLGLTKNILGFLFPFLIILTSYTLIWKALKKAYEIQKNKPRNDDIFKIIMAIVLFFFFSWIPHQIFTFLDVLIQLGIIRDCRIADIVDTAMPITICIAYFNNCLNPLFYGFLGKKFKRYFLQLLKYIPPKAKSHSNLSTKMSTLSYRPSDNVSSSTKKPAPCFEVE
Method in brief: (§1)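 PathHunter enzyme-complementation assay in HEK293 cells stably expressing ProLink-tagged human AT1R or rat AT1aR; peptides (final 100 μM–1 pM) in HBSS/20 mM HEPES for 60 min at 37 °C. Detection reagent 60 min at room temperature; β-arrestin-2 recruitment read as relative luminescence.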

[2] = molecular target: T2, rat AT1aR (Rattus norvegicus, UniProt P25095); experiment: beta-arrestin2 recruitment assay (PathHunter), rat AT1aR; settings: for Emax: 1 h, read-out: Span (relative to hAngII)
T2 sequence (P25095 1-359): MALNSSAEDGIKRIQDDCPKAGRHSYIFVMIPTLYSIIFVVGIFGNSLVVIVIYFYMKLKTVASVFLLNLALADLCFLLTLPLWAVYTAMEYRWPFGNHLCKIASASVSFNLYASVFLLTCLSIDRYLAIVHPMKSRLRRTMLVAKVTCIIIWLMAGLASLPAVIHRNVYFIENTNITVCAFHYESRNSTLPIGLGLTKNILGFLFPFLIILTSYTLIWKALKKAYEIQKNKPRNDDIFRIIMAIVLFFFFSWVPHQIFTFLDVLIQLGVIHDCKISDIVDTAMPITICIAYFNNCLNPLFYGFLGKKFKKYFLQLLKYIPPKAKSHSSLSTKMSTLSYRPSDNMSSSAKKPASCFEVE
Method in brief: as §1

[3] = molecular target: T1, human AT1R; experiment: IP1 accumulation assay (IP1 G-protein assay), human AT1R; settings: for Emax: read-out: Span (relative to hAngII)
Protocol: (§2) A secondary measure of G protein coupling efficacy was also performed. IP3 is generated by activation of phospholipase C by Gα-q. IP3 is degraded to IP1, which can be forced to accumulate in cells by blocking degradation with lithium chloride. Thus we measured accumulation of IP1 to determine ligand efficacy for G protein activation.
(§3) IP1 accumulation generated by human and rat angiotensin 2 type 1 receptor (human AT1R and rat AT1aR, respectively) was measured with IP-One Tb kits purchased from Cisbio and used per the manufacturer's instructions. Clonal stably transfected cell lines expressing human AT1TR or rat AT1aR were used for all experiments.
(§4) For assays, 4,000-8,000 cells were seeded per well in 384-well small-volume microplates “HiBase” small-volume plate in volumes of 20 uL and allowed to grow overnight at 37° C. in 5% CO2. Cell growth media was then replaced with stimulation buffer supplied by Cisbio containing 50 mM lithium chloride. […] For agonist detection, peptides were then further diluted in stimulation buffer to add peptide to the cells to reach final concentrations ranging from 100 uM to 1 pM. Following addition of peptides, cells were incubated at 37° C. in 5% CO2 for 30 minutes and then lysed with 4 uL of pre-mixed HTRF IP-One reagents diluted per manufacturer's instructions (Cisbio). Microplates were incubated for 60-90 minutes at room temperature and then time-resolved fluorescence intensities were measured using a PHERAstar Plus microplate reader from BMG Labtech. IP1 accumulation was measured as change in ratio of time-resolved fluorescent intensities measured at 665 nm and 620 nm.

[4] = molecular target: T2, rat AT1aR; experiment: IP1 accumulation assay (IP1 G-protein assay), rat AT1aR; settings: for Emax: read-out: Span (relative to hAngII)
Protocol: as §2, §3, §4

Row | Compound | Emax [1] | EC50 ([1]; read-out: EC50) | Emax [2] | EC50 ([2]; read-out: EC50) | EC50 ([3]; read-out: EC50) | Emax [3] | EC50 ([3]; read-out: pEC50 (converted)) | EC50 ([4]; read-out: EC50) | Emax [4] | EC50 ([1]; read-out: pEC50 (converted)) | EC50 ([2]; read-out: pEC50 (converted)) | EC50 ([4]; read-out: pEC50 (converted))
1 | CNCC(=O)N[C@@H](CCCNC(=N)N)C(=O)N[C@H](C(=O)N[C@@H](Cc1ccc(O)cc1)C(=O)NC1(C(=O)N[C@@H](Cc2c[nH]cn2)C(=O)N2CCC[C@H]2C(=O)N[C@@H](Cc2ccccc2)C(=O)O)CCCCC1)C(C)C [SEQ ID NO: 17, Sar-Arg-Val-Tyr-cyHex-His-Pro-Phe] (H-[Sar]RVY[Ac6c]HPF-OH; N-terminus and C-terminus assumed) | > 101% | > 3.2 nM | < 105% | 3.2 nM | < 1.3 nM | < 103% | > 0.631 nM | > 0.6 nM | > 104% | – | – | –
2 | CC[C@H](C)[C@H](NC(=O)[C@@H]1CCCN1C(=O)[C@H](Cc1c[nH]cn1)NC(=O)C1(NC(=O)[C@H](Cc2ccc(O)cc2)NC(=O)[C@@H](NC(=O)[C@H](CCCN=C(N)N)NC(=O)CNC)C(C)C)CCCC1)C(=O)O [SEQ ID NO: 18, Sar-Arg-Val-Tyr-cyPen-His-Pro-Ile] (H-[Sar]RVY[Ac5c]HPI-OH) | – | > 3.2 nM | – | > 3.2 nM | > 1.3 nM | – | > 0.631 nM | > 0.6 nM | – | > 3.16 nM | > 3.16 nM | > 0.631 nM
3 | CC[C@H](C)[C@H](NC(=O)[C@@H]1CCCN1C(=O)[C@H](Cc1c[nH]cn1)NC(=O)C1(NC(=O)[C@H](Cc2ccc(O)cc2)NC(=O)[C@@H](NC(=O)[C@H](CCCNC(=N)N)NC(=O)CNC)C(C)C)CCCC1)C(=O)O [SEQ ID NO: 18, Sar-Arg-Val-Tyr-cyPen-His-Pro-Ile] (H-[Sar]RVY[Ac5c]HPI-OH) | < 101% | – | < 105% | – | – | < 103% | – | – | < 104% | – | – | –
4 | CNCC(=O)N[C@@H](CCCNC(=N)N)C(=O)N[C@H](C(=O)N[C@@H](Cc1ccc(O)cc1)C(=O)NC1(C(=O)N[C@@H](Cc2c[nH]cn2)C(=O)N2CCC[C@H]2C(=O)N[C@@H](CC(C)C)C(=O)O)CCCC1)C(C)C [SEQ ID NO: 19, Sar-Arg-Val-Tyr-cyPen-His-Pro-Leu] (H-[Sar]RVY[Ac5c]HPL-OH) | < 101% | > 3.2 nM | < 105% | > 3.2 nM | > 1.3 nM | < 103% | > 0.631 nM | > 0.6 nM | – | > 3.16 nM | > 3.16 nM | > 0.631 nM
5 | CNCC(=O)N[C@@H](CCCNC(=N)N)C(=O)N[C@H](C(=O)N[C@@H](Cc1ccc(O)cc1)C(=O)NC1(C(=O)N[C@@H](Cc2c[nH]cn2)C(=O)N2CCC[C@H]2C(=O)N[C@H](C(=O)O)C(C)C)CCCC1)C(C)C [SEQ ID NO: 20, Sar-Arg-Val-Tyr-cyPen-His-Pro-Val] (H-[Sar]RVY[Ac5c]HPV-OH) | < 101% | > 3.2 nM | < 105% | > 3.2 nM | > 1.3 nM | < 103% | > 0.631 nM | > 0.6 nM | < 104% | > 3.16 nM | > 3.16 nM | > 0.631 nM
6 | CNCC(=O)N[C@@H](CCCNC(=N)N)C(=O)N[C@H](C(=O)N[C@@H](Cc1ccc(O)cc1)C(=O)NC1(C(=O)N[C@@H](Cc2c[nH]cn2)C(=O)N2CCC[C@H]2C(=O)N[C@H](C(=O)O)[C@@H](C)O)CCCC1)C(C)C [SEQ ID NO: 21, Sar-Arg-Val-Tyr-cyPen-His-Pro-Thr] (H-[Sar]RVY[Ac5c]HPT-OH) | < 101% | > 3.2 nM | < 105% | > 3.2 nM | > 1.3 nM | – | > 0.631 nM | > 0.6 nM | < 104% | > 3.16 nM | > 3.16 nM | > 0.631 nM
7 | CNCC(=O)N[C@@H](CCCNC(=N)N)C(=O)N[C@H](C(=O)N[C@@H](Cc1ccc(O)cc1)C(=O)NC1(C(=O)N[C@@H](Cc2c[nH]cn2)C(=O)N2CCC[C@H]2C(=O)N[C@@H](CO)C(=O)O)CCCC1)C(C)C [SEQ ID NO: 22, Sar-Arg-Val-Tyr-cyPen-His-Pro-Ser] (H-[Sar]RVY[Ac5c]HPS-OH) | < 101% | > 3.2 nM | < 105% | > 3.2 nM | > 1.3 nM | – | > 0.631 nM | > 0.6 nM | < 104% | > 3.16 nM | > 3.16 nM | > 0.631 nM
8 | CNCC(=O)N[C@@H](CCCNC(=N)N)C(=O)N[C@H](C(=O)N[C@@H](Cc1ccc(O)cc1)C(=O)NC1(C(=O)N[C@@H](Cc2c[nH]cn2)C(=O)N2CCC[C@H]2C(=O)N[C@@H](CCSC)C(=O)O)CCCC1)C(C)C [SEQ ID NO: 23, Sar-Arg-Val-Tyr-cyPen-His-Pro-Met] (H-[Sar]RVY[Ac5c]HPM-OH) | < 101% | > 3.2 nM | < 105% | > 3.2 nM | > 1.3 nM | < 103% | > 0.631 nM | > 0.6 nM | < 104% | > 3.16 nM | > 3.16 nM | > 0.631 nM
9 | CNCC(=O)N[C@@H](CCCNC(=N)N)C(=O)N[C@H](C(=O)N[C@@H](Cc1ccc(O)cc1)C(=O)NC1(C(=O)N[C@@H](Cc2c[nH]cn2)C(=O)N2CCC[C@H]2C(=O)N[C@@H](Cc2ccccc2)C(=O)O)CCCC1)C(C)C [SEQ ID NO: 24, Sar-Arg-Val-Tyr-cyPen-His-Pro-Phe] (H-[Sar]RVY[Ac5c]HPF-OH) | > 101% | > 3.2 nM | < 105% | > 3.2 nM | < 1.3 nM | > 103% | > 0.631 nM | > 0.6 nM | < 104% | > 3.16 nM | > 3.16 nM | > 0.631 nM
10 | CNCC(=O)N[C@@H](CCCNC(=N)N)C(=O)N[C@H](C(=O)N[C@@H](Cc1ccc(O)cc1)C(=O)NC1(C(=O)N[C@@H](Cc2c[nH]cn2)C(=O)N2CCC[C@H]2C(=O)N[C@@H](CCC(N)=O)C(=O)O)CCCCC1)C(C)C [SEQ ID NO: 38, Sar-Arg-Val-Tyr-cyHex-His-Pro-Gln] (H-[Sar]RVY[Ac6c]HPQ-OH) | < 101% | > 3.2 nM | < 105% | > 3.2 nM | > 1.3 nM | < 103% | > 0.631 nM | > 0.6 nM | < 104% | > 3.16 nM | > 3.16 nM | > 0.631 nM
11 | CNCC(=O)N[C@@H](CCCNC(=N)N)C(=O)N[C@H](C(=O)N[C@@H](Cc1ccc(O)cc1)C(=O)NC1(C(=O)N[C@@H](Cc2c[nH]cn2)C(=O)N2CCC[C@H]2C(=O)N2CCC[C@H]2C(=O)O)CCCCC1)C(C)C [SEQ ID NO: 39, Sar-Arg-Val-Tyr-cyHex-His-Pro-Pro] (H-[Sar]RVY[Ac6c]HPP-OH) | < 101% | > 3.2 nM | < 105% | > 3.2 nM | > 1.3 nM | < 103% | > 0.631 nM | > 0.6 nM | < 104% | > 3.16 nM | > 3.16 nM | > 0.631 nM
12 | CNCC(=O)N[C@@H](CCCNC(=N)N)C(=O)N[C@H](C(=O)N[C@@H](Cc1ccc(O)cc1)C(=O)NC1(C(=O)N[C@@H](Cc2c[nH]cn2)C(=O)N2CCC[C@H]2C(=O)N[C@@H](Cc2c[nH]c3ccccc23)C(=O)O)CCCCC1)C(C)C [SEQ ID NO: 54, Sar-Arg-Val-Tyr-cyHex-His-Pro-Trp] (H-[Sar]RVY[Ac6c]HPW-OH) | < 101% | > 3.2 nM | < 105% | > 3.2 nM | > 1.3 nM | < 103% | > 0.631 nM | > 0.6 nM | < 104% | > 3.16 nM | > 3.16 nM | > 0.631 nM
